Assay results reported in ChEMBL document CHEMBL1155245, “Diazen-1-ium-1,2-diolated nitric oxide donor ester prodrugs of 5-(4-carboxymethylphenyl)-1-(4-methanesulfonylphenyl)-3-trifluoromethyl-1H-pyrazole and its aminosulfonyl analog: Synthesis, biological evaluation and nitric oxide release studies” (Bioorg Med Chem, 2009).

How the values were obtained:
Serum = assay: Induction of nitric oxide release in rat serum containing phosphate buffer at pH 7.4; assay type: functional; parameters: concentration or dose not given beside the values
[1] = Induction of nitric oxide release in phosphate buffer at pH 7.4; assay type: physicochemical
Rattus norvegicus [2] = assay: Antiinflammatory activity in po dosed rat assessed as inhibition of carrageenan-induced paw edema after 3 hrs; assay type: functional
[3] = biological target: T1, Prostaglandin G/H synthase 1 (Ovis aries, UniProt P05979)
T1 sequence (P05979 whole entry): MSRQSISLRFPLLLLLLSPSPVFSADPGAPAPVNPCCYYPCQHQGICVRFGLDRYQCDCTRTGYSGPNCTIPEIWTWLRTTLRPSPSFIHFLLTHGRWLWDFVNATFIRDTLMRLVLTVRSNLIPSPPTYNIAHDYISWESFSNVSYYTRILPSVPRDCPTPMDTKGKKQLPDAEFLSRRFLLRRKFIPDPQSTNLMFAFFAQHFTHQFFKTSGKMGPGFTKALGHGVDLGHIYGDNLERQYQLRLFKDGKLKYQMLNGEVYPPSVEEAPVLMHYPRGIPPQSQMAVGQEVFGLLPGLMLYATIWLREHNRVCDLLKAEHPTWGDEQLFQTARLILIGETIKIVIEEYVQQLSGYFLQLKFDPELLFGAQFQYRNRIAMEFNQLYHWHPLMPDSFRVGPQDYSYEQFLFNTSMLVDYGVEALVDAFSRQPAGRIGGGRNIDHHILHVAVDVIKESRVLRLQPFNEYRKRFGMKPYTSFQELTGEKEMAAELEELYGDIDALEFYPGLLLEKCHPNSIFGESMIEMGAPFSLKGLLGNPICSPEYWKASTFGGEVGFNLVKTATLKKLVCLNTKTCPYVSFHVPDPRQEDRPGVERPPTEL
Description: Inhibition of ovine COX1 by enzyme immunoassay

Rattus norvegicus [4] = species: Rattus norvegicus; assay: animal or person; assay type: functional; conditions: 3 h
[5] = Selectivity ratio of IC50 for ovine COX1 to IC50 for human COX2

Row | Activity [1] [%] | IC50 [3] [µM] | Ratio IC50 [5] | SMILES | Activity (Serum) [%] | ED50 (Rattus norvegicus [2]) [µmol/kg] | inhibition in vivo at 113.8 µmol/kg (Rattus norvegicus [4]) [%]
1 | 84.5 |  |  | [O-]/[N+](=N\O)N1CCC[C@H]1CO | 85 |  | 
2 |  |  |  | CC(=O)Oc1ccccc1C(=O)O [ASPIRIN] |  | 714 | 
3 |  | 65.2 |  | CS(=O)(=O)c1ccc(-n2nc(C(F)(F)F)cc2-c2ccc(CC(=O)O)cc2)cc1 |  | 216 | 
4 | 5 | 11.8 |  | CC(=O)OCO/N=[N+](\[O-])N1CCC[C@H]1COC(=O)Cc1ccc(-c2cc(C(F)(F)F)nn2-c2ccc(S(C)(=O)=O)cc2)cc1 | 62.9 |  | 
5 | 84.5 |  |  | CN(CCO)/[N+]([O-])=N\O | 84.8 |  | 
6 |  | 8.1 |  | NS(=O)(=O)c1ccc(-n2nc(C(F)(F)F)cc2-c2ccc(CC(=O)O)cc2)cc1 |  | 114 | 50
7 | 6.9 | 8.2 |  | CC(=O)OCO/N=[N+](\[O-])N(C)CCOC(=O)Cc1ccc(-c2cc(C(F)(F)F)nn2-c2ccc(S(C)(=O)=O)cc2)cc1 | 72.2 |  | 
8 | 7.2 | 35.4 |  | CC(=O)OCO/N=[N+](\[O-])N(C)CCOC(=O)Cc1ccc(-c2cc(C(F)(F)F)nn2-c2ccc(S(N)(=O)=O)cc2)cc1 | 74.6 |  | 55.8
9 | 5.4 | 13.4 | 14.4 | CC(=O)OCO/N=[N+](\[O-])N1CCC[C@H]1COC(=O)Cc1ccc(-c2cc(C(F)(F)F)nn2-c2ccc(S(N)(=O)=O)cc2)cc1 | 59.6 |  | 46.5
